tested on: batrachotoxin (BTX) binding site of the sodium channel; test: Affinity for the batrachotoxin (BTX) binding site of the sodium channel; details: rat cerebrocortex synaptosomes, [3H]-Batrachotoxinin A20α benzoate 10 nM

Point of comparison: `COc1ccc(CN2CCN(C(=O)c3c(-c4ccco4)c(C)cn3Cc3ccc(F)cc3)CC2)cc1F` [Example 75, [1-(4-fluorobenzyl)-3-furan-2-yl-4-methyl-1H-pyrrol-2-yl]-[4-(3-fluoro-4-methoxybenzyl)-piperazin-1-yl]-methanone], “BTX (Na+ channel) (% inhibition at 10 μM)” value 89%. Against it:
- Cc1cn(C)c(C(=O)N2CCN(c3ccncc3)CC2)c1-c1ccc(Cl)cc1 [Example 57, [3-(4-chlorophenyl)-1,4-dimethyl-1H-pyrrol-2-yl]-(4-pyridin-4-ylpiperazin-1-yl)-methanone] — lower, 76%
- COc1ccc(-c2c(C)cn(C)c2C(=O)N2CCN(c3cc(C)ccc3C)CC2)cc1 [Example 52, [4-(2,5-dimethylphenyl)-piperazin-1-yl]-[3-(4-methoxyphenyl)-1,4-dimethyl-1H-pyrrol-2-yl]-methanone] — lower, 76%
- COc1cccc(CNC(=O)c2c(-c3ccccc3)c(C)cn2Cc2ccccc2)c1 [Example 44, 1-benzyl-4-methyl-3-phenyl-1H-pyrrole-2-carboxylic acid 3-methoxybenzylamide] — lower, 47%
- Cc1cn(Cc2ccccc2F)c(C(=O)NCCCn2ccnc2)c1-c1ccc(Cl)cc1 [Example 58, 3-(4-chlorophenyl)-1-(2-fluorobenzyl)-4-methyl-1H-pyrrole-2-carboxylic acid (3-imidazol-1-ylpropyl)-amide] — higher, 93%
- Cc1cn(Cc2ccccc2Br)c(C(=O)N2CCN(C(C)C)CC2)c1-c1ccc(Cl)cc1 [Example 71, [1-(2-bromobenzyl)-3-(4-chlorophenyl)-4-methyl-1H-pyrrol-2-yl]-(4-isopropylpiperazin-1-yl)-methanone] — lower, 83%
- CCOc1ccc(Br)cc1CN1CCN(C(=O)c2c(-c3ccco3)c(C)cn2Cc2ccccc2)CC1 [Example 45, (1-benzyl-3-furan-2-yl-4-methyl-1H-pyrrol-2-yl)-[4-(5-bromo-2-ethoxybenzyl)-piperazin-1-yl]-methanone] — the same, 89%
- COc1ccc(OCCNC(=O)c2c(-c3ccccc3)c(C)cn2Cc2ccccc2)cc1 [Example 62, 1-benzyl-4-methyl-3-phenyl-1H-pyrrole-2-carboxylic acid [2-(4-methoxyphenoxy)-ethyl]-amide] — lower, 50%
- COc1ccc(-c2c(C)cn(Cc3ccc(F)cc3)c2C(=O)N2CCN(CCN(C)C)CC2)cc1 [Example 72, [4-(2-dimethylamino-ethyl)-piperazin-1-yl]-[1-(4-fluorobenzyl)-3-(4-methoxyphenyl)-4-methyl-1H-pyrrol-2-yl]-methanone] — lower, 81%
- Cc1cn(Cc2ccc(C(F)(F)F)cc2)c(C(=O)NCCN2CCCC2)c1-c1ccco1 [Example 38, 3-furan-2-yl-4-methyl-1-(4-trifluoromethylbenzyl)-1H-pyrrole-2-carboxylic acid (2-pyrrolidin-1-ylethyl)-amide] — higher, 94%
- Cc1ccc(-c2c(C)cn(Cc3c(Cl)cccc3Cl)c2C(=O)N2CCC(O)CC2)cc1 [Example 48, [1-(2,6-dichlorobenzyl)-4-methyl-3-p-tolyl-1H-pyrrol-2-yl]-(4-hydroxypiperidin-1-yl)-methanone] — lower, 36%
- COc1ccc(-c2c(C)cn(C)c2C(=O)N2CCN(c3cccc(Cl)c3)CC2)cc1 [Example 70, [4-(3-chlorophenyl)-piperazin-1-yl]-[3-(4-methoxyphenyl)-1,4-dimethyl-1H-pyrrol-2-yl]-methanone] — lower, 59%
- Cc1cn(Cc2ccc(F)cc2)c(C(=O)NCCN2CCOCC2)c1-c1ccco1 [Example 50, 1-(4-fluorobenzyl)-3-furan-2-yl-4-methyl-1H-pyrrole-2-carboxylic acid (2-morpholin-4-ylethyl)-amide] — lower, 77%
- Cc1cn(C)c(C(=O)NCCCN2CCCCC2C)c1-c1ccc(Cl)cc1 (stereo not shown) [Example 78, 3-(4-chlorophenyl)-1,4-dimethyl-1H-pyrrole-2-carboxylic acid [3-(2-methylpiperidin-1-yl)-propyl]-amide] — lower, 86%
- CCn1cc(C)c(-c2ccc(Cl)cc2)c1C(=O)NCCC(=O)OC(C)(C)C [Example 43, 3-{[3-(4-chlorophenyl)-1-ethyl-4-methyl-1H-pyrrole-2-carbonyl]-amino}-propionic acid tert.-butyl ester] — lower, 31%
- COc1ccc(Cn2cc(C)c(-c3ccc(C)cc3)c2C(=O)N(C)CC(=O)OCc2ccccc2)cc1 [Example 39, {[1-(4-methoxybenzyl)-4-methyl-3-p-tolyl-1H-pyrrole-2-carbonyl]-methylamino}-acetic acid benzyl ester] — lower, 74%
- Cc1cn(Cc2ccccc2)c(C(=O)NC(C)c2ccc3ccccc3c2)c1-c1ccco1 (stereo not shown) [Example 81, 1-benzyl-3-furan-2-yl-4-methyl-1H-pyrrole-2-carboxylic acid (1-naphthalen-2-ylethyl)-amide] — lower, 35%
- Cc1cn(C)c(C(=O)N2CCN(C3CCCCCC3)CC2)c1-c1ccco1 [Example 61, (4-cycloheptylpiperazin-1-yl)-(3-furan-2-yl-1,4-dimethyl-1H-pyrrol-2-yl)-methanone] — lower, 64%
- Cc1ccc(-c2c(C)cn(Cc3ccccc3)c2C(=O)NCCN2CCCC2)cc1 [Example 74, 1-benzyl-4-methyl-3-p-tolyl-1H-pyrrole-2-carboxylic acid (2-pyrrolidin-1-ylethyl)-amide] — higher, 101%
- COc1ccc(-c2c(C)cn(Cc3ccc(F)cc3)c2C(=O)NCCc2cccs2)cc1 [Example 35, 1-(4-fluorobenzyl)-3-(4-methoxyphenyl)-4-methyl-1H-pyrrole-2-carboxylic acid (2-thiophen-2-ylethyl)-amide] — lower, 48%
- COc1ccc(F)c(CN2CCN(C(=O)c3c(-c4ccc(Cl)cc4)c(C)cn3C)CC2)c1 [Example 66, [3-(4-chlorophenyl)-1,4-dimethyl-1H-pyrrol-2-yl]-[4-(2-fluoro-5-methoxybenzyl)-piperazin-1-yl]-methanone] — lower, 73%
- CCN(CC)CCCNC(=O)c1c(-c2ccc(Cl)cc2)c(C)cn1CC(C)C [Example 65, 3-(4-chlorophenyl)-1-isobutyl-4-methyl-1H-pyrrole-2-carboxylic acid (3-diethylamino-propyl)-amide] — lower, 88%
- COc1ccc(CN2CCN(C(=O)c3c(-c4ccco4)c(C)cn3Cc3ccccc3)CC2)cc1F [Example 42, (1-benzyl-3-furan-2-yl-4-methyl-1H-pyrrol-2-yl)-[4-(3-fluoro-4-methoxybenzyl)-piperazin-1-yl]-methanone] — lower, 88%
- COc1ccc(-c2c(C)cn(Cc3ccc(F)cc3)c2C(=O)NCCc2cccc(C(F)(F)F)c2)cc1 [Example 54, 1-(4-fluorobenzyl)-3-(4-methoxyphenyl)-4-methyl-1H-pyrrole-2-carboxylic acid [2-(3-trifluoromethylphenyl)-ethyl]-amide] — lower, 42%
- COc1ccc(CNC(=O)c2c(-c3ccc(Cl)cc3)c(C)cn2Cc2ccccc2F)c(OC)c1 [Example 73, 3-(4-chlorophenyl)-1-(2-fluorobenzyl)-4-methyl-1H-pyrrole-2-carboxylic acid 2,4-dimethoxybenzylamide] — lower, 49%

— patent US7968591B2, “1,3-disubstituted 4-methyl-1H-pyrrole-2-carboxamides and their use in medicaments” (Gruenenthal GmbH, priority 2006, dated 2011)
